# From patent publication US20040077697A1, “2-Acylaminothiazole derivative or its salt” (priority 2001, published 2004)
# Experiments:
# human CD34+ cell = experiment: Megakaryocyte colony formation promoting action; type: cell-based; conditions: MegaCult-C, 10 to 14 days, colonies per well, average of three
# Procedure: <Megakaryocyte Colony Formation Promoting Action>
# A human CD34^+ cell was cultured at 37° C. for 10 to 14 days in the presence of a test compound in a 2-well chamber slide by using MegaCult™-C (produced by StemCell Technologies). According to the manufacturer's instructions, the slide was dehydrated, fixed, and then stained with an anti-glycoprotein IIb/IIIa antibody. A colony containing three or more of the glycoprotein IIb/IIIa positive megakaryocyte cells was defined as one colony, and the number of colonies per well was microscopically measured. The assay was replicated thrice, and an average value was evaluated as the number of megakaryocyte colonies.
melting point,Structure (SMILES),Number of megakaryocyte colonies (human CD34+ cell; test compound 0.3 μM),Number of megakaryocyte colonies (human CD34+ cell; test compound 1.0 μM),Number of megakaryocyte colonies (human CD34+ cell; test compound 3.0 μM)
169 to 172 °C,COc1cc(OC)cc(C(=O)Nc2nc(-c3ccccc3)c(N3CCOCC3)s2)c1.Cl,,,
270 to 272 °C (dec.),Cl.O=C(Nc1nc(-c2ccc(F)cc2)c(N2CCN(C3CCCCC3)CC2)s1)c1ccc(O)c(Cl)c1,,,
263 to 266 °C,"COc1cc(C(=O)Nc2nc(-c3ccc(F)cc3)c(N3CCN(C4CCCCC4)CC3)s2)ccn1 [Example 2, N-[5-(4-cyclohexylpiperazin-1-yl)-4-(4-fluorophenyl)thiazol-2-yl]-2-methoxyi sonicotinamide]",5.2,19.0,34.8
